Measured values: patent US12668845B2, “Methods for predicting drug responsiveness in cancer patients” (Allarity Therapeutics Europe ApS, priority 2018, dated 2026)

Tests used:
JVM-13 = assay: Growth inhibition of cell lines treated with 2X-121; assay type: cell-based; conditions: JVM13; cell line JVM-13, origin MCL; read-out: Measured growth inhibition IC50
Namalwa = assay: as above; assay type: cell-based; conditions: cell line Namalwa, origin Burkitts lymphoma; read-out: Measured growth inhibition IC50
[1] = in vivo; cited from earlier work
NCI-H211 = assay: Growth inhibition of cell lines treated with 2X-121; assay type: cell-based; conditions: Homo sapiens; cell line NCI-H211, origin SCLC; read-out: Measured growth inhibition IC50
MC/CAR = assay: as above; assay type: cell-based; conditions: cell line MC/CAR, origin Myeloma; read-out: Measured growth inhibition IC50
HepG2 = assay: as above; assay type: cell-based; conditions: Homo sapiens; cell line HepG2, origin HCC; read-out: Measured growth inhibition IC50
JVM-2 = assay: as above; assay type: cell-based; conditions: Homo sapiens; cell line JVM-2, origin MCL; read-out: Measured growth inhibition IC50
Description: (§1) The NCI60 panel of cell lines can be used to determine sensitivity to 2X-121, but it is also possible to use other cell line panels.
(§2) Baseline DNA chip measurements of 61 of the cancer cell lines in Table 1 (excluding M14 HEC-1 ECC-1 SNG-II HEC-88nu SR IM-9 Namalwa MC/CAR U266 JVM-13 NCEB-1 ARH-77) were performed using Affymetrix HG-U133Plus2 arrays and logit normalized. For each array, the logit transformation was performed followed by a Z-transformation to mean zero and SD 1, and correlated to growth inhibition (−log(GI50)). The expression level of each of the genes of Tables 2 and 3 in each cell line was correlated to the growth of those cell lines (log(GI50)) in the presence of 2X-121. The Pearson correlation coefficient was then determined to identify genes positively and negatively correlated to sensitivity to 2X-121. Tables 2 and 3 show the top positively correlated genes (the biomarkers of sensitivity) and negatively correlated genes (the biomarkers of resistance). In particular, genes with a Pearson correlation greater than 0.25 or below −0.25 can be classified as biomarkers of sensitivity or resistance, respectively.

NCI-H446 = assay: as above; assay type: cell-based; conditions: Homo sapiens; cell line NCI-H446, origin SCLC; read-out: Measured growth inhibition IC50
Description: as §1, §2

HCT-15 = assay: as above; assay type: cell-based; conditions: Homo sapiens; cell line HCT-15, origin Colon; read-out: Measured growth inhibition IC50
tumor = assay: Phase I trial of 2X-121 (NCT01618136), clinical response; assay type: in vivo, human; set-up: key to RECIST: SD = stable disease; PD = progressive disease; PR = partial response
Description: A Phase I trial of 2X-121 was conducted in the UK (clinicaltrial.gov number NCT01618136). 2X-121 was administered as daily oral doses of 50-800 mg. Of 41 patients enrolled in the Phase I trial, 35 had response assessment. Of these, 2 had partial response (PR) (5% overall response rate (ORR)) and 13 had stable disease (SD). Biopsies and BRCA analysis were voluntary and available from 16, and 7 patients, respectively.
Of the 16 patients with biopsies, 13 passed our quality control (QC) in the lab and were assayed on the Affymetrix HG-U133Plus2 array.
A statistical analysis plan was completed before initiation of blinded prediction of 2X-121 sensitivity on the 13 samples. In this analysis, the difference of the mean expression of genes in Table 3 were subtracted from the mean expression of genes in Table 2 for each patient to determine a difference score. This score was compared to a reference population of 819 breast cancer patients to convert the difference score to a percentile score. The percentile score is shown in Table 4 as “DRP score” and used for FIGS. 3 and 4, and Tables 5 and 6.

MV-4-11 = assay: Growth inhibition of cell lines treated with 2X-121; assay type: cell-based; conditions: Homo sapiens, MV4-11; cell line MV-4-11, origin AML; read-out: Measured growth inhibition IC50
AN3 CA = assay: as above; assay type: cell-based; conditions: Homo sapiens; cell line AN3 CA, origin Endometrial; read-out: Measured growth inhibition IC50
ECC-1 = assay: as above; assay type: cell-based; conditions: Homo sapiens; cell line ECC-1, origin Endometrial; read-out: Measured growth inhibition IC50
[2] = Patient 1, tumor pancreas, 2X-121 dose 600 mg
[3] = Patient 2, tumor mesothelioma, 2X-121 dose 200 mg
[4] = Patient 3, tumor pancreas, 2X-121 dose 600 mg
[5] = Patient 4, tumor intestine, 2X-121 dose 600 mg
[6] = Patient 5, tumor ovary, 2X-121 dose 600 mg
[7] = Patient 6, tumor lung, 2X-121 dose 50 mg
[8] = Patient 7, tumor pancreas, 2X-121 dose 50 mg
[9] = Patient 8, tumor adrenal, 2X-121 dose 400 mg
[10] = Patient 9, tumor kidney, 2X-121 dose 400 mg
[11] = Patient 10, tumor ovary, 2X-121 dose 800 mg
[12] = Patient 11, tumor ovary, 2X-121 dose 800 mg
[13] = Patient 12, tumor pancreas, 2X-121 dose 600 mg
[14] = Patient 13, tumor gallbladder, 2X-121 dose 600 mg
[15] = predicted resistant group (below DRP cutoff 50, N=7)

For `O=c1[nH]nc2c3c(cccc13)N=C(CN1Cc3ccccc3C1)N2` [2X-121, 8-(isoindolin-2-ylmethyl)-2,9-dihydro-3H-pyridazino[3,4,5-de]quinazolin-3-one], the IC50 (JVM-13) is given as 7.3 µM, the IC50 (Namalwa) is given as 2.5 µM and the brain penetration [1] is given as “brain penetrable”. It also gave an IC50 (NCI-H211) of 0.48 µM, an IC50 (MC/CAR) of 2.3 µM and an IC50 (HepG2) of 3.8 µM. The IC50 (JVM-2) was 14 µM, the IC50 (NCI-H446) was 0.61 µM and the IC50 (HCT-15) was 2.2 µM. For the same molecule, the response rate (tumor; BRCA mutated population, 1 of 6 responded) was 16%, the “TimeOS” value (tumor; Patient 1, tumor pancreas, 600 mg, StatusOS Death) was 208 days and the “TimePFS” value (tumor; Patient 1, tumor pancreas, 600 mg, StatusPFS censored) was 42 days. The “Diameter (%), change from baseline” value (tumor; [2]) was −10%, the RECIST (tumor; [2]) was “SD” and the “TimeOS” value (tumor; Patient 2, tumor mesothelioma, 200 mg, StatusOS Death) was 167 days. The “TimePFS” value (tumor; Patient 2, tumor mesothelioma, 200 mg, StatusPFS Progression) was 50 days, the “Diameter (%), change from baseline” value (tumor; [3]) was 1% and the RECIST (tumor; [3]) was “PD”. For the same molecule, the “TimeOS” value (tumor; Patient 3, tumor pancreas, 600 mg, StatusOS censored) was 406 days, the “TimePFS” value (tumor; Patient 3, tumor pancreas, 600 mg, StatusPFS censored) was 321 days and the “Diameter (%), change from baseline” value (tumor; [4]) was −22%. The RECIST (tumor; [4]) was “SD”, the “TimeOS” value (tumor; Patient 4, tumor intestine, 600 mg, StatusOS Death) was 120 days and the “TimePFS” value (tumor; Patient 4, tumor intestine, 600 mg, StatusPFS Progression) was 59 days. For the same molecule, the “Diameter (%), change from baseline” value (tumor; [5]) was 23%, the RECIST (tumor; [5]) was “PD” and the “TimeOS” value (tumor; Patient 5, tumor ovary, 600 mg, StatusOS censored) was 379 days. The “TimePFS” value (tumor; Patient 5, tumor ovary, 600 mg, StatusPFS Progression) was 331 days, the “Diameter (%), change from baseline” value (tumor; [6]) was −83% and the RECIST (tumor; [6]) was “PR”. The “TimeOS” value (tumor; Patient 6, tumor lung, 50 mg, StatusOS censored) was 466 days, the “TimePFS” value (tumor; Patient 6, tumor lung, 50 mg, StatusPFS Progression) was 155 days and the “Diameter (%), change from baseline” value (tumor; [7]) was 5%. The RECIST (tumor; [7]) was “SD”, the “TimeOS” value (tumor; Patient 7, tumor pancreas, 50 mg, StatusOS Death) was 335 days and the “TimePFS” value (tumor; Patient 7, tumor pancreas, 50 mg, StatusPFS censored) was 262 days. For the same molecule, the “Diameter (%), change from baseline” value (tumor; [8]) was 3%, the RECIST (tumor; [8]) was “SD” and the “TimeOS” value (tumor; Patient 8, tumor adrenal, 400 mg, StatusOS Death) was 190 days. For the same molecule, the “TimePFS” value (tumor; Patient 8, tumor adrenal, 400 mg, StatusPFS Progression) was 50 days, the “Diameter (%), change from baseline” value (tumor; [9]) was 40% and the RECIST (tumor; [9]) was “PD”. The “TimeOS” value (tumor; Patient 9, tumor kidney, 400 mg, StatusOS censored) was 865 days, the “TimePFS” value (tumor; Patient 9, tumor kidney, 400 mg, StatusPFS Progression) was 276 days and the “Diameter (%), change from baseline” value (tumor; [10]) was −2%. For the same molecule, the RECIST (tumor; [10]) was “SD”, the “TimeOS” value (tumor; Patient 10, tumor ovary, 800 mg, StatusOS Death) was 301 days and the “TimePFS” value (tumor; Patient 10, tumor ovary, 800 mg, StatusPFS Progression) was 50 days. For the same molecule, the “Diameter (%), change from baseline” value (tumor; [11]) was 26%, the RECIST (tumor; [11]) was “PD” and the “TimeOS” value (tumor; Patient 11, tumor ovary, 800 mg, StatusOS censored) was 715 days. The “TimePFS” value (tumor; Patient 11, tumor ovary, 800 mg, StatusPFS Progression) was 315 days, the “Diameter (%), change from baseline” value (tumor; [12]) was −46% and the RECIST (tumor; [12]) was “PR”. For the same molecule, the “TimeOS” value (tumor; Patient 12, tumor pancreas, 600 mg, StatusOS Death) was 257 days, the “TimePFS” value (tumor; Patient 12, tumor pancreas, 600 mg, StatusPFS Progression) was 189 days and the “Diameter (%), change from baseline” value (tumor; [13]) was −7%. For the same molecule, the RECIST (tumor; [13]) was “SD”, the “TimeOS” value (tumor; Patient 13, tumor gallbladder, 600 mg, StatusOS Death) was 121 days and the “TimePFS” value (tumor; Patient 13, tumor gallbladder, 600 mg, StatusPFS Progression) was 41 days. The “Diameter (%), change from baseline” value (tumor; [14]) was 3%, the RECIST (tumor; [14]) was “PD” and the “patients with partial response (PR)” value (tumor; Phase I, daily oral 50-800 mg, of 35 patients with response assessment) was 2. The “overall response rate (ORR)” value (tumor; Phase I, daily oral doses of 50-800 mg, 41 enrolled, 35 with response assessment) was 5%, the “hazard ratio, progression-free survival (PFS)” value (tumor; above DRP cutoff of 50 (N=6) vs below (N=7), P=0.2 one-sided) was 0.59 and the “hazard ratio, overall survival (OS)” value (tumor; above dose-adjusted DRP cutoff of 50 (N=6) vs below (N=7), P=0.04 one sided) was 0.26. The response rate (tumor; all 13 patients analyzed with DRP (cutoff 0, 100% of population), 2/13) was 15%, the response rate (tumor; patients above dose-adjusted DRP cutoff of 50, 2/6) was 33% and the “median PFS” value (tumor; [15]) was 155 days. The median survival (tumor; [15]) was 208 days, the “median PFS” value (tumor; predicted sensitive group (above DRP cutoff 50, N=6)) was 296 days and the IC50 (MV-4-11) was 0.95 µM. The IC50 (AN3 CA) was 1.49 µM and the IC50 (ECC-1) was 0.68 µM.
